Test results published in patent publication US10662156B2, “Guanidine derivative and medical use thereof” (Toray Industries, Inc., priority 2016, dated 2020).
Where a name gives a salt, the structure may show the parent alone.

These molecules were tested against recombinant GST fusion MALT1 (human MALT1) (Homo sapiens (Human), UniProt Q9UDY8) (assay: Evaluation of inhibition of protease activity of MALT1 (cleavage of fluorescent peptide substrate Ac-LRSR-AMC)). Conditions: substrate Ac-LRSR-AMC 20 μmol/L, 30° C. for 80 minutes.
Sequence of recombinant GST fusion MALT1 (human MALT1) (Q9UDY8 whole entry, the tested form may be a part): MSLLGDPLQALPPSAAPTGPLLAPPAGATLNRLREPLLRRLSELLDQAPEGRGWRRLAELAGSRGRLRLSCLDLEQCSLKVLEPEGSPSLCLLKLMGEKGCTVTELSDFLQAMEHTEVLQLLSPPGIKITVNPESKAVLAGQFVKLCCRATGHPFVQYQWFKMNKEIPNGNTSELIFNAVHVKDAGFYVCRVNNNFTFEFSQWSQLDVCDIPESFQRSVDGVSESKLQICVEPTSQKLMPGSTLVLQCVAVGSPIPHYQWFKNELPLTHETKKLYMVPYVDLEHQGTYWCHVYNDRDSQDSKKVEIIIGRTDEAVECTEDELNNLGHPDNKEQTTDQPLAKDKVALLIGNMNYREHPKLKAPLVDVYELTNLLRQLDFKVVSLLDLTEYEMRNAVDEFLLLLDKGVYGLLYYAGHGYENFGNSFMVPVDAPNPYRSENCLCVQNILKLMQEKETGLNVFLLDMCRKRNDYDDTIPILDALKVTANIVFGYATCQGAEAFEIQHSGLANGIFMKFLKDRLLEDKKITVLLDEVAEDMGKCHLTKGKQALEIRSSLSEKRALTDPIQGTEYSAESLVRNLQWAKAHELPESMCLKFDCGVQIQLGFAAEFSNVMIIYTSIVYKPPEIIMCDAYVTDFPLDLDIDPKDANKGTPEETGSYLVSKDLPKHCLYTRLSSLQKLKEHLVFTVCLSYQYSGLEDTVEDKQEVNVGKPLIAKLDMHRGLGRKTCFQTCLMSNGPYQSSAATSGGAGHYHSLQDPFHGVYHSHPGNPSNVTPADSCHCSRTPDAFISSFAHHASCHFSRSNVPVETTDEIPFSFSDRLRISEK
Format: biochemical
Procedure: The guanidine derivative (I) or the pharmacologically acceptable salt thereof was evaluated for its inhibition of the protease activity of MALT1 in an in vitro experimental system in accordance with the method described in the literature (Cancer Cell, 2012, Vol. 22, p. 825-837). Specifically, the evaluation was conducted by measuring the degree of reduction in fluorescence value by the compound relative to elevation in fluorescence value resulting from the cleavage of a fluorescently labeled artificial peptide substrate by recombinant MALT1.
A) Preparation of Recombinant GST Fusion MALT1:
Full-length cDNA of human MALT1 gene (GenBank accession No: AB026118.1) amplified by PCR was inserted in flame to a SalI site located downstream of GST gene in a pGEX6P3 vector (GE Healthcare Japan Corp.) to prepare a vector (hereinafter, referred to as a pGEX6P3-MALT1 vector). Subsequently, E. coli for protein expression (BL21-RIL-codon plus-DE3, Agilent Technologies, Inc.) was transformed with the pGEX6P3-MALT1 vector and then analyzed by ampicillin resistance screening and colony PCR to obtain an E. coli strain expressing recombinant GST fusion MALT1. Protein expression was induced with isopropyl-(3-thiogalactopyranoside. After the expression induction, E. coli precipitates were recovered by centrifugation from the E. coli culture solution, and the E. coli precipitates were homogenized and then centrifuged to obtain a supernatant. The supernatant was purified using GSTrap FF column (GE Healthcare Japan Corp.) to obtain recombinant GST fusion MALT1.
B) Evaluation of Inhibition of Protease Activity of MALT1:
To 89 μL of an enzyme solution ([…] GST fusion MALT1, 50 mmol/L MES, 150 mmol/L NaCl, 10% sucrose, 0.1% CHAPS, 10 mmol/L dithiothreitol, and 1 mol/L tri-ammonium citrate) per specimen, 1 μL of a test compound (DMSO-diluted solution) of each concentration was added to prepare a mixed solution. The mixed solution was incubated at room temperature for 30 minutes, followed by the measurement of the fluorescence value of the mixed solution (fluorescence value of the first measurement) (Ex: 380 nm, Em: 460 nm; Envision (Perkin Elmer Inc.)). Next, 10 μL of 200 μmol/L substrate (Ac-LRSR-AMC, SM Biochemicals LLC) was added (final concentration: 20 μmol/L) to the mixed solution, and the mixture was reacted by incubation at 30° C. for 80 minutes, followed by the measurement of the fluorescence value of the reaction solution (fluorescence value of the second measurement) (Ex: 380 nm, Em: 460 nm; Envision (Perkin Elmer Inc.)). A “well nonsupplemented with the test compound (only DMSO was added), nonsupplemented with the enzyme and supplemented with the substrate”, and a “well nonsupplemented with the test compound (only DMSO was added), supplemented with the enzyme and supplemented with the substrate” were established.
The fluorescence value of the first measurement was defined as “F1”, and the fluorescence value of the second measurement was defined as “F2”. F2−F1 of the “well nonsupplemented with the test compound (only DMSO was added), nonsupplemented with the enzyme and supplemented with the substrate” was defined as “Fback”, F2−F1 of the “well nonsupplemented with the test compound (only DMSO was added), supplemented with the enzyme and supplemented with the substrate” was defined as “Fpositive”, and F2−F1 of the “well supplemented with the test compound, supplemented with the enzyme and supplemented with the substrate” was defined as “Fsample”. The rate of inhibition (%) of the protease activity of MALT1 by the test compound was calculated according to the following expression. Rate of inhibition (%)=100×(1−(Fsample−Fback)/(Fpositive−Fback))

Row | SMILES | IC50 [nM]
1 | N/C(=N\C(=O)C1CCCC1)NCc1cnc(-c2ccc(Cl)cc2)c(-c2ccc(Cl)cc2)c1 [Compound of Example 70, N-(amino(((5,6-bis(4-chlorophenyl)pyridin-3-yl)methyl)amino)methylene)cyclopentanecarboxamide] | 341
2 | N/C(=N\S(=O)(=O)C1CCCCC1)NCc1cnc(-c2ccc(Cl)cc2)c(-c2ccc(Cl)cc2)c1 [Compound of Example 56, N-(amino(((5,6-bis(4-chlorophenyl)pyridin-3-yl)methyl)amino)methylene)cyclohexanesulfonamide] | 429
3 | N/C(=N\S(=O)(=O)c1ccccc1)NCc1cnc(-c2ccc(Cl)cc2)c(-c2ccccc2Cl)c1 [Compound of Example 16, N-(amino(((5-(2-chlorophenyl)-6-(4-chlorophenyl)pyridin-3-yl)methyl)amino)methylene)benzenesulfonamide] | 2410
4 | Cn1cc(S(=O)(=O)/N=C(\N)NCc2cnc(-c3ccc(Cl)cc3)c(-c3ccc(Cl)cc3)c2)cn1 [Compound of Example 53, N-(amino(((5,6-bis(4-chlorophenyl)pyridin-3-yl)methyl)amino)methylene)-1-methyl-1H-pyrazole-4-sulfonamide] | 2010
5 | COc1cccc(S(=O)(=O)/N=C(\N)NCc2cnc(-c3ccc(Cl)cc3)c(-c3ccc(Cl)cc3)c2)c1 [Compound of Example 50, N-(amino(((5,6-bis(4-chlorophenyl)pyridin-3-yl)methyl)amino)methylene)-3-methoxybenzenesulfonamide] | 114
6 | CCOc1cccc(S(=O)(=O)/N=C(\N)NCc2cnc(-c3ccc(Cl)cc3)c(-c3ccc(Cl)cc3)c2)c1 [Compound of Example 51, N-(amino(((5,6-bis(4-chlorophenyl)pyridin-3-yl)methyl)amino)methylene)-3-ethoxybenzenesulfonamide] | 185
7 | NC(=NS(=O)(=O)c1cccs1)NCc1cc(-c2ccc(Cl)cc2)c(-c2ccc(Cl)cc2)cn1 [Compound of Example 43, N-(amino(((4,5-bis(4-chlorophenyl)pyridin-2-yl)methyl)amino)methylene)thiophene-2-sulfonamide] | 23
8 | N/C(=N\S(=O)(=O)c1ccccc1)NCc1cnc(-c2ccc(C(F)(F)F)cc2)c(-c2ccc(Cl)cc2)c1 [Compound of Example 11, N-(amino(((5-(4-chlorophenyl)-6-(4-(trifluoromethyl)phenyl)pyridin-3-yl)methyl)amino)methylene)benzenesulfonamide] | 348
9 | N/C(=N\C(=O)c1nccs1)NCc1cnc(-c2ccc(Cl)cc2)c(-c2ccc(Cl)cc2)c1 [Compound of Example 61, N-(amino(((5,6-bis(4-chlorophenyl)pyridin-3-yl)methyl)amino)methylene)thiazole-2-carboxamide] | 408
10 | N/C(=N\C(=O)c1cccs1)NCc1cnc(-c2ccc(Cl)cc2)c(-c2ccc(Cl)cc2)c1 [Compound of Example 35, N-(amino(((5,6-bis(4-chlorophenyl)pyridin-3-yl)methyl)amino)methylene)thiophene-2-carboxamide Hydrochloride] | 314
11 | N#Cc1cccc(S(=O)(=O)/N=C(\N)NCc2cnc(-c3ccc(Cl)cc3)c(-c3ccc(Cl)cc3)c2)c1 [Compound of Example 47, N-(amino(((5,6-bis(4-chlorophenyl)pyridin-3-yl)methyl)amino)methylene)-3-cyanobenzenesulfonamide] | 320
12 | N/C(=N\S(=O)(=O)c1ccccc1)NCc1cnc(-c2cccc(F)c2)c(-c2ccc(Cl)cc2)c1 [Compound of Example 9, N-(amino(((5-(4-chlorophenyl)-6-(3-fluorophenyl)pyridin-3-yl)methyl)amino)methylene)benzenesulfonamide] | 1710
13 | COc1ccccc1S(=O)(=O)/N=C(\N)NCc1cnc(-c2ccc(Cl)cc2)c(-c2ccc(Cl)cc2)c1 [Compound of Example 49, N-(amino(((5,6-bis(4-chlorophenyl)pyridin-3-yl)methyl)amino)methylene)-2-methoxybenzenesulfonamide] | 326
14 | COc1nc(-c2ccc(Cl)cc2)c(-c2ccc(Cl)cc2)cc1CN/C(N)=N/S(=O)(=O)c1ccccc1 [Compound of Example 88, N-(amino(((5,6-bis(4-chlorophenyl)-2-methoxypyridin-3-yl)methyl)amino)methylene)benzenesulfonamide] | 104
15 | N/C(=N\C(=O)C1CC1)NCc1cnc(-c2ccc(Cl)cc2)c(-c2ccc(Cl)cc2)c1 [Compound of Example 71, N-(amino(((5,6-bis(4-chlorophenyl)pyridin-3-yl)methyl)amino)methylene)cyclopropanecarboxamide] | 565
16 | NN/C(=N\S(=O)(=O)c1ccccc1)NCc1cnc(-c2ccc(Cl)cc2)c(-c2ccc(Cl)cc2)c1 [Compound of Example 38, N-((5,6-bis(4-chlorophenyl)pyridin-3-yl)methyl)-N′-(phenylsulfonyl)hydrazinecarboximidate] | 90
17 | CCOC(=O)/N=C(\N)NCc1cnc(-c2ccc(Cl)cc2)c(-c2ccc(Cl)cc2)c1 [Compound of Example 81, 1-((5,6-bis(4-chlorophenyl)pyridin-3-yl)methyl)-2-(ethoxycarbonyl)guanidine Hydrochloride] | 534
18 | N/C(=N\C(=O)CCc1ccccc1)NCc1cnc(-c2ccc(Cl)cc2)c(-c2ccc(Cl)cc2)c1 [Compound of Example 74, N-(amino(((5,6-bis(4-chlorophenyl)pyridin-3-yl)methyl)amino)methylene)-3-phenylpropanamide] | 296
19 | N/C(=N\S(=O)(=O)c1cccc(F)c1)NCc1cnc(-c2ccc(Cl)cc2)c(-c2ccc(Cl)cc2)c1 [Compound of Example 27, N-(amino(((5,6-bis(4-chlorophenyl)pyridin-3-yl)methyl)amino)methylene)-3-fluorobenzenesulfonamide] | 532
20 | N/C(=N\S(=O)(=O)c1cccc(Cl)c1)NCc1cnc(-c2ccc(Cl)cc2)c(-c2ccc(Cl)cc2)c1 [Compound of Example 48, N-(amino(((5,6-bis(4-chlorophenyl)pyridin-3-yl)methyl)amino)methylene)-3-chlorobenzenesulfonamide] | 333
21 | N/C(=N\S(=O)(=O)c1ccccc1)NCc1cnc(-c2ccc(Cl)cc2)c(-c2ccc(OC(F)(F)F)cc2)c1 [Compound of Example 22, N-(amino(((6-(4-chlorophenyl)-5-(4-(trifluoromethoxy)phenyl)pyridin-3-yl)methyl)amino)methylene)benzenesulfonamide] | 745
22 | N/C(=N\C(=O)c1ccc(F)cc1)NCc1cnc(-c2ccc(Cl)cc2)c(-c2ccc(Cl)cc2)c1 [Compound of Example 66, N-(amino(((5,6-bis(4-chlorophenyl)pyridin-3-yl)methyl)amino)methylene)-4-fluorobenzamide] | 1130
23 | N/C(=N\S(=O)(=O)c1ccccc1)NCc1cc(-c2ccc(Cl)cc2)c(-c2ccc(Cl)cc2)nc1F [Compound of Example 89, N-(amino(((5,6-bis(4-chlorophenyl)-2-fluoropyridin-3-yl)methyl)amino)methylene)benzenesulfonamide] | 368
24 | N/C(=N\C(=O)c1cscn1)NCc1cnc(-c2ccc(Cl)cc2)c(-c2ccc(Cl)cc2)c1 [Compound of Example 83, N-(amino(((5,6-bis(4-chlorophenyl)pyridin-3-yl)methyl)amino)methylene)thiazole-4-carboxamide] | 942
25 | Cc1ccc(-c2ncc(CN/C(N)=N/S(=O)(=O)c3cccs3)cc2-c2ccc(C(F)(F)F)cc2)cc1 [Compound of Example 33, N-(amino(((6-(4-methylphenyl)-5-(4-(trifluoromethyl)phenyl)pyridin-3-yl)methyl)amino)methylene)thiophene-2-sulfonamide Hydrochloride] | 2070
